Results: patent publication US10344025B2, “GLS1 inhibitors for treating disease” (Board of Regents, The University of Texas System, priority 2014, dated 2019)
Where two headings read alike, the source gives them in different places.

Tests used:
A549 cells = assay: Proliferation Assay (A549 viability, Cell Titer Fluor, 72 hours); format: cell-based
Procedure, shortened: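 A549 cells seeded at 1000 cells/well, rested 24 h, then exposed to compound in 0.5% DMSO for 72 h at 37 °C. Viability read by Cell Titer Fluor fluorescence; IC50 from four-parameter logistic fit.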

[1] = molecular target: purified recombinant human GAC (GLS1) (Homo sapiens (Human), UniProt O94925); assay: GLS1 Enzymatic Activity Assay (dual-coupled enzymatic assay, resorufin/Amplex UltraRed readout); format: biochemical;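 note: glutamate from GAC coupled via glutamate oxidase and peroxidase to resorufin, read as fluorescence (ex 530, em 590 nm) kinetically or at 20 min, four-parameter logistic IC50 fit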
purified recombinant human GAC (GLS1), sequence (O94925 other isoform, or with tags, fused parts or gaps): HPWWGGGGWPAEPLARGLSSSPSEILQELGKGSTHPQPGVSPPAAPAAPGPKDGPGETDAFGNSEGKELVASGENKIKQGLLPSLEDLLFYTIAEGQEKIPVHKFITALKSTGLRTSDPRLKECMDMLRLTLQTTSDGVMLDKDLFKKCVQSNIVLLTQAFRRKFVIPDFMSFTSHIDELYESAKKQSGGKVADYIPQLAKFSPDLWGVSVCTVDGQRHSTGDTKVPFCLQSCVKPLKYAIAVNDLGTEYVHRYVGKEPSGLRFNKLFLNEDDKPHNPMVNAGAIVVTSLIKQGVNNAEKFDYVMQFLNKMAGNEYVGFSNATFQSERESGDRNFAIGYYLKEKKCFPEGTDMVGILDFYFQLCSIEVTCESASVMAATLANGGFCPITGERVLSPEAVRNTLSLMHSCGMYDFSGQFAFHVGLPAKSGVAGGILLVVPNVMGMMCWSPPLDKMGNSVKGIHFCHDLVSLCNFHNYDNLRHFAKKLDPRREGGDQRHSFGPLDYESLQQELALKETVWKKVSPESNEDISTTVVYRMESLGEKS

| Structure (SMILES) | EC50 (A549 cells; Homo sapiens, A549, 72 h) | IC50 [1] | EC50 (A549 cells) |
| --- | --- | --- | --- |
| O=C(NCc1cc(OC(F)(F)F)ccc1F)c1cn(CC(F)CCc2nnc(NC(=O)C3CCCCO3)s2)nn1 (stereo not shown) [Example 574, 1-(2-fluoro-4-(5-(tetrahydro-2H-pyran-2-carboxamido)-1,3,4-thiadiazol-2-yl)butyl)-N-(2-fluoro-5-(trifluoromethoxy)benzyl)-1H-1,2,3-triazole-4-carboxamide] | < 100 nM | < 100 nM |  |
| O=C(Cc1cccnc1)Nc1cn(CCCCn2cc(C(=O)NCc3cccc(OC(F)(F)F)c3)nn2)nn1 [Example 294, 1-(4-{4-[2-(pyridin-3-yl)acetamido]-1H-1,2,3-triazol-1-yl}butyl)-N-{[3-(trifluoromethoxy)phenyl]methyl}-1H-1,2,3-triazole-4-carboxamide] | 100 to 500 nM | < 100 nM |  |
| CC1(C)Oc2ccc(CNC(=O)c3cn(CCCCn4cc(C(=O)NCc5cncc(C(F)(F)F)c5)nn4)nn3)cc2O1 [Example 136, 1-[4-(4-{[(2,2-dimethyl-2H-1,3-benzodioxol-5-yl)methyl]carbamoyl}-1H-1,2,3-triazol-1-yl)butyl]-N-{[5-(trifluoromethyl)pyridin-3-yl]methyl}-1H-1,2,3-triazole-4-carboxamide] | < 100 nM | < 100 nM |  |
| O=C(Cc1cc(Cl)ccc1F)Nc1cn(CCCCn2cc(C(=O)NCc3cc(Cl)ccc3F)nn2)nn1 [Example 415, 1-(4-{4-[2-(5-chloro-2-fluorophenyl)acetamido]-1H-1,2,3-triazol-1-yl}butyl)-N-[(5-chloro-2-fluorophenyl)methyl]-1H-1,2,3-triazole-4-carboxamide] | < 100 nM | < 100 nM |  |
| Cc1ccc(CNC(=O)c2nnc(CCC(F)Cn3cc(C(=O)NCc4cc(OC(F)(F)F)ccc4F)nn3)s2)cn1 (stereo not shown) [Example 443, 5-{3-fluoro-4-[4-({[2-fluoro-5-(trifluoromethoxy)phenyl]methyl}carbamoyl)-1H-1,2,3-triazol-1-yl]butyl}-N-[(6-methylpyridin-3-yl)methyl]-1,3,4-thiadiazole-2-carboxamide] | < 100 nM | < 100 nM |  |
| O=C(Cc1cccc(OC(F)(F)F)c1)Nc1nnc(CCC(F)Cn2cc(C(=O)NCc3cccc(C(F)(F)F)n3)nn2)s1 (stereo not shown) [Example 494, 1-[2-fluoro-4-(5-{2-[3-(trifluoromethoxy)phenyl]acetamido}-1,3,4-thiadiazol-2-yl)butyl]-N-{[6-(trifluoromethyl)pyridin-2-yl]methyl}-1H-1,2,3-triazole-4-carboxamide] | < 100 nM | < 100 nM |  |
| O=C(NCc1cccc(OC(F)(F)F)c1)c1cn(CCCCn2cc(C(=O)NCc3ccnc(C(F)(F)F)c3)nn2)nn1 [Example 122, 1-{4-[4-({[3-(trifluoromethoxy)phenyl]methyl}carbamoyl)-1H-1,2,3-triazol-1-yl]butyl}-N-{[2-(trifluoromethyl)pyridin-4-yl]methyl}-1H-1,2,3-triazole-4-carboxamide] | < 100 nM | < 100 nM |  |
| O=C(NCc1cccc(OC(F)(F)F)c1)c1cn(CCCCc2nnc(C(=O)NCc3ccccn3)s2)nn1 [Example 47, N-(pyridin-2-ylmethyl)-5-{4-[4-({[3-(trifluoromethoxy)phenyl]methyl}carbamoyl)-1H-1,2,3-triazol-1-yl]butyl}-1,3,4-thiadiazole-2-carboxamide] | 100 to 500 nM | < 100 nM |  |
| CNC(=O)c1cn(CCC(F)Cn2cc(C(=O)NCc3ccccn3)nn2)nn1 (stereo not shown) [Example 163, 1-(3-fluoro-4-{4-[(pyridin-2-ylmethyl)carbamoyl]-1H-1,2,3-triazol-1-yl}butyl)-N-methyl-1H-1,2,3-triazole-4-carboxamide] | 500 to 5000 nM | 500 to 5000 nM |  |
| CC(C)(CO)CNC(=O)c1cn(CCCCc2ccc(NC(=O)Cc3cccc(OC(F)(F)F)c3)nn2)nn1 [Example 560, N-(3-hydroxy-2,2-dimethylpropyl)-1-[4-(6-{2-[3-(trifluoromethoxy)phenyl]acetamido}pyridazin-3-yl)butyl]-1H-1,2,3-triazole-4-carboxamide] | 100 to 500 nM | < 100 nM |  |
| CNC(=O)c1cn(CCCCc2ccc(NC(=O)Cc3cccc(-c4ccccn4)c3)nn2)nn1 [Example 545, N-methyl-1-[4-(6-{2-[3-(pyridin-2-yl)phenyl]acetamido}pyridazin-3-yl)butyl]-1H-1,2,3-triazole-4-carboxamide] | 100 to 500 nM | < 100 nM |  |
| O=C(NCc1cc(C(F)(F)F)ccn1)c1cn(CC(F)CCc2nnc(C(=O)NCC(F)(F)F)s2)nn1 (stereo not shown) [Example 499, 5-{3-fluoro-4-[4-({[4-(trifluoromethyl)pyridin-2-yl]methyl}carbamoyl)-1H-1,2,3-triazol-1-yl]butyl}-N-(2,2,2-trifluoroethyl)-1,3,4-thiadiazole-2-carboxamide] | 100 to 500 nM | 100 to 500 nM |  |
| NC(=O)c1cn(CCCCc2nnc(NC(=O)Cc3cccc(OC(F)(F)F)c3)s2)nn1 [Example 3, 1-(4-(5-(2-(3-(Trifluoromethoxy)phenyl)acetamido)-1,3,4-thiadiazol-2-yl)butyl)-1H-1,2,3-triazole-4-carboxamide] | 100 to 500 nM | 100 to 500 nM |  |
| O=C(NCc1cc(C(F)(F)F)ccn1)c1cn(CCC(F)Cn2cc(C(=O)NCc3cc(C(F)(F)F)ccn3)nn2)nn1 (stereo not shown) [Example 470, 1-{2-fluoro-4-[4-({[4-(trifluoromethyl)pyridin-2-yl]methyl}carbamoyl)-1H-1,2,3-triazol-1-yl]butyl}-N-{[4-(trifluoromethyl)pyridin-2-yl]methyl}-1H-1,2,3-triazole-4-carboxamide] | < 100 nM | < 100 nM |  |
| CNC(=O)c1cn(C[C@H](F)CCc2ccc(NC(=O)Cc3cc(C4CC4)ccn3)nn2)nn1 [Example 275, (R)-1-(4-(6-(2-(4-cyclopropylpyridin-2-yl)acetamido)pyridazin-3-yl)-2-fluorobutyl)-N-methyl-1H-1,2,3-triazole-4-carboxamide] | < 100 nM | < 100 nM |  |
| CNC(=O)c1cn(CC(F)CCc2nnc(NC(=O)Cc3cccnc3)s2)nn1 (stereo not shown) [Example 578, 1-(2-fluoro-4-(5-(2-(pyridin-3-yl)acetamido)-1,3,4-thiadiazol-2-yl)butyl)-N-methyl-1H-1,2,3-triazole-4-carboxamide] | 500 to 5000 nM | < 100 nM |  |
| O=C(NCc1cncc(C(F)(F)F)c1)c1cn(CCCCn2cc(C(=O)NCc3ccc(C(F)(F)F)cn3)nn2)nn1 [Example 142, 1-{4-[4-({[5-(trifluoromethyl)pyridin-2-yl]methyl}carbamoyl)-1H-1,2,3-triazol-1-yl]butyl}-N-{[5-(trifluoromethyl)pyridin-3-yl]methyl}-1H-1,2,3-triazole-4-\ carboxamide] | < 100 nM | < 100 nM |  |
| O=C(NCc1ccc(F)cc1)c1cn(CCC(F)Cn2cc(C(=O)NCc3cc(C(F)(F)F)ccn3)nn2)nn1 (stereo not shown) [Example 459, 1-[2-fluoro-4-(4-{[(4-fluorophenyl)methyl]carbamoyl}-1H-1,2,3-triazol-1-yl)butyl]-N-{[4-(trifluoromethyl)pyridin-2-yl]methyl}-1H-1,2,3-triazole-4-carboxamide] | 100 to 500 nM | < 100 nM |  |
| O=C(Cc1ccccn1)Nc1ccc(CCCCn2cc(C(=O)NCc3cc(OC(F)(F)F)ccc3F)nn2)nn1 [Example 588, N-(2-fluoro-5-(trifluoromethoxy)benzyl)-1-(4-(6-(2-(pyridin-2-yl)acetamido)pyridazin-3-yl)butyl)-1H-1,2,3-triazole-4-carboxamide] | < 100 nM | < 100 nM |  |
| COCCNC(=O)c1nnc(CCCCn2cc(C(=O)NCc3ccccc3)nn2)s1 [Example 52, 5-{4-[4-(benzylcarbamoyl)-1H-1,2,3-triazol-1-yl]butyl}-N-(2-methoxyethyl)-1,3,4-thiadiazole-2-carboxamide] | > 5000 nM | 500 to 5000 nM |  |
| CNC(=O)c1cn(CCCCc2ccc(NC(=O)Cc3cccc(CNC(=O)OC(C)(C)C)c3)nn2)nn1 [Example 172] | < 100 nM | < 100 nM |  |
| Cc1ccc(CNC(=O)c2cn(CCCCc3nnc(C(=O)NCc4ccccn4)s3)nn2)cn1 [Example 62, 5-[4-(4-{[(6-methylpyridin-3-yl)methyl]carbamoyl}-1H-1,2,3-triazol-1-yl)butyl]-N-(pyridin-2-ylmethyl)-1,3,4-thiadiazole-2-carboxamide] | 500 to 5000 nM | 100 to 500 nM |  |
| CNC(=O)c1cn(C[C@@H](F)CCc2nnc(NC(=O)Cc3cccc(OC(F)(F)F)c3)s2)nn1 [Example 239, (S)-1-(2-fluoro-4-(5-(2-(3-(trifluoromethoxy)phenyl)acetamido)-1,3,4-thiadiazol-2-yl)butyl)-N-methyl-1H-1,2,3-triazole-4-carboxamide] |  | < 100 nM | 100 to 500 nM |
| O=C(Cc1cc(OC(F)(F)F)ccc1F)Nc1ccc(CCCCn2cc(C(=O)NC3CC3)nn2)nn1 [Example 583, N-cyclopropyl-1-(4-(6-(2-(2-fluoro-5-(trifluoromethoxy)phenyl)acetamido)pyridazin-3-yl)butyl)-1H-1,2,3-triazole-4-carboxamide] | < 100 nM | < 100 nM |  |
| O=C(Cc1cccc(OC(F)(F)F)c1)Nc1cn(CCCCn2cc(C(=O)NCc3cc(C(F)(F)F)ccn3)nn2)nn1 [Example 414, 1-[4-(4-{2-[3-(trifluoromethoxy)phenyl]acetamido}-1H-1,2,3-triazol-1-yl)butyl]-N-{[4-(trifluoromethyl)pyridin-2-yl]methyl}-1H-1,2,3-triazole-4-carboxamide] | < 100 nM | < 100 nM |  |
| O=C(NCc1cccc(Cl)c1)c1cn(CCCCn2cc(C(=O)NCc3cc(C(F)(F)F)ccn3)nn2)nn1 [Example 111, 1-[4-(4-{[(3-chlorophenyl)methyl]carbamoyl}-1H-1,2,3-triazol-1-yl)butyl]-N-{[4-(trifluoromethyl)pyridin-2-yl]methyl}-1H-1,2,3-triazole-4-carboxamide] | < 100 nM | < 100 nM |  |
